{"source": "patent US6358885B1", "about": "“Substituted phenylheterocyclic herbicides” (Mississippi State University, priority 1992, dated 2002)", "assay_in_all_cases": "Test B preemergence/postemergence greenhouse plant response rating 0 to 10", "conditions_in_all_cases": "0 to 10 scale", "key": {"lambsquarters": {"system": "lambsquarters", "type": "in vivo, Chenopodium album", "how_it_was_run": "(§1)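 Test chemicals were sprayed onto freshly planted seed and, concurrently, onto young plants between the one and four leaf stage. After a twelve- to sixteen-day greenhouse period, each species was visually compared with untreated controls.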"}, "bedstraw": {"system": "bedstraw", "type": "in vivo, Galium aparine", "how_it_was_run": "as §1"}, "wheat": {"system": "wheat", "type": "in vivo, Triticum aestivum", "how_it_was_run": "as §1"}, "rice": {"system": "rice", "type": "in vivo, Oryza sativa", "how_it_was_run": "as §1"}, "wild oat": {"system": "wild oat", "type": "in vivo, Avena fatua", "how_it_was_run": "as §1"}, "giant foxtail": {"system": "giant foxtail", "type": "in vivo, Setaria faberii", "how_it_was_run": "as §1"}, "chickweed": {"system": "chickweed", "type": "in vivo, Stellaria media", "how_it_was_run": "as §1"}, "velvetleaf": {"system": "velvetleaf", "type": "in vivo, Abutilon theophrasti", "how_it_was_run": "as §1"}, "purple nutsedge": {"system": "purple nutsedge", "type": "in vivo, Cyperus rotundus", "how_it_was_run": "as §1"}, "sorghum": {"system": "sorghum", "type": "in vivo, Sorghum bicolor", "how_it_was_run": "as §1"}, "crabgrass": {"system": "crabgrass", "type": "in vivo, Digitaria spp.", "how_it_was_run": "as §1"}, "barnyardgrass": {"system": "barnyardgrass", "type": "in vivo, Echinochloa crus-galli", "how_it_was_run": "as §1"}, "rape": {"system": "rape", "type": "in vivo, Brassica napus", "how_it_was_run": "as §1"}, "corn": {"system": "corn", "type": "in vivo, Zea mays", "how_it_was_run": "as §1"}, "morningglory": {"system": "morningglory", "type": "in vivo, Ipomoea hederacea", "how_it_was_run": "as §1"}, "blackgrass": {"system": "blackgrass", "type": "in vivo, Alopecurus myosuroides", "how_it_was_run": "as §1"}, "cocklebur": {"system": "cocklebur", "type": "in vivo, Xanthium pensylvanicum", "how_it_was_run": "as §1"}, "cheatgrass": {"system": "cheatgrass", "type": "in vivo, Bromus secalinus", "how_it_was_run": "as §1"}, "sugar beet": {"system": "sugar beet", "type": "in vivo, Beta vulgaris", "how_it_was_run": "as §1"}, "soybean": {"system": "soybean", "type": "in vivo, Glycine max", "how_it_was_run": "as §1"}, "cotton": {"system": "cotton", "type": "in vivo, Gossypium hirsutum", "how_it_was_run": "as §1"}, "wild buckwheat": {"system": "wild buckwheat", "type": "in vivo, Polygonum convolvulus", "how_it_was_run": "as §1"}, "barley": {"system": "barley", "type": "in vivo, Hordeum vulgare", "how_it_was_run": "as §1"}}}
{"smiles": "COCCN1C(=O)COc2cc(F)c(-c3nn4c(c3Cl)CCCC4)cc21", "note": "[Compound 53]", "values": [{"measurement": "Plant response rating, Lambsquarter", "setting": "lambsquarters; POSTEMERGENCE, Rate 10 g/ha", "value": 10}, {"measurement": "Plant response rating, Lambsquarter", "setting": "lambsquarters; POSTEMERGENCE, Rate 50 g/ha", "value": 10}, {"measurement": "Plant response rating, Lambsquarter", "setting": "lambsquarters; PREEMERGENCE, Rate 50 g/ha", "value": 10}, {"measurement": "Plant response rating, Bedstraw", "setting": "bedstraw; POSTEMERGENCE, Rate 10 g/ha", "value": 8}, {"measurement": "Plant response rating, Bedstraw", "setting": "bedstraw; POSTEMERGENCE, Rate 50 g/ha", "value": 10}, {"measurement": "Plant response rating, Bedstraw", "setting": "bedstraw; PREEMERGENCE, Rate 10 g/ha", "value": 8}, {"measurement": "Plant response rating, Bedstraw", "setting": "bedstraw; PREEMERGENCE, Rate 50 g/ha", "value": 9}, {"measurement": "Plant response rating, Wheat", "setting": "wheat; POSTEMERGENCE, Rate 10 g/ha", "value": 7}, {"measurement": "Plant response rating, Wheat", "setting": "wheat; POSTEMERGENCE, Rate 50 g/ha", "value": 7}, {"measurement": "Plant response rating, Wheat", "setting": "wheat; PREEMERGENCE, Rate 50 g/ha", "value": 7}, {"measurement": "Plant response rating, Rice", "setting": "rice; POSTEMERGENCE, Rate 10 g/ha", "value": 4}, {"measurement": "Plant response rating, Rice", "setting": "rice; POSTEMERGENCE, Rate 50 g/ha", "value": 4}, {"measurement": "Plant response rating, Rice", "setting": "rice; PREEMERGENCE, Rate 50 g/ha", "value": 1}, {"measurement": "Plant response rating, Wild oat", "setting": "wild oat; POSTEMERGENCE, Rate 10 g/ha", "value": 6}, {"measurement": "Plant response rating, Wild oat", "setting": "wild oat; POSTEMERGENCE, Rate 50 g/ha", "value": 7}, {"measurement": "Plant response rating, Wild oat", "setting": "wild oat; PREEMERGENCE, Rate 50 g/ha", "value": 8}, {"measurement": "Plant response rating, Giant foxtail", "setting": "giant foxtail; POSTEMERGENCE, Rate 10 g/ha", "value": 3}, {"measurement": "Plant response rating, Giant foxtail", "setting": "giant foxtail; POSTEMERGENCE, Rate 50 g/ha", "value": 6}, {"measurement": "Plant response rating, Giant foxtail", "setting": "giant foxtail; PREEMERGENCE, Rate 10 g/ha", "value": 2}, {"measurement": "Plant response rating, Giant foxtail", "setting": "giant foxtail; PREEMERGENCE, Rate 50 g/ha", "value": 8}, {"measurement": "Plant response rating, Chickweed", "setting": "chickweed; POSTEMERGENCE, Rate 10 g/ha", "value": 9}, {"measurement": "Plant response rating, Chickweed", "setting": "chickweed; POSTEMERGENCE, Rate 50 g/ha", "value": 9}, {"measurement": "Plant response rating, Chickweed", "setting": "chickweed; PREEMERGENCE, Rate 10 g/ha", "value": 10}, {"measurement": "Plant response rating, Chickweed", "setting": "chickweed; PREEMERGENCE, Rate 50 g/ha", "value": 10}, {"measurement": "Plant response rating, Velvetleaf", "setting": "velvetleaf; POSTEMERGENCE, Rate 10 g/ha", "value": 9}, {"measurement": "Plant response rating, Velvetleaf", "setting": "velvetleaf; POSTEMERGENCE, Rate 50 g/ha", "value": 10}, {"measurement": "Plant response rating, Velvetleaf", "setting": "velvetleaf; PREEMERGENCE, Rate 50 g/ha", "value": 9}, {"measurement": "Plant response rating, Nutsedge", "setting": "purple nutsedge; POSTEMERGENCE, Rate 10 g/ha", "value": 6}, {"measurement": "Plant response rating, Nutsedge", "setting": "purple nutsedge; POSTEMERGENCE, Rate 50 g/ha", "value": 6}, {"measurement": "Plant response rating, Nutsedge", "setting": "purple nutsedge; PREEMERGENCE, Rate 50 g/ha", "value": 0}, {"measurement": "Plant response rating, Sorghum", "setting": "sorghum; POSTEMERGENCE, Rate 10 g/ha", "value": 3}, {"measurement": "Plant response rating, Sorghum", "setting": "sorghum; POSTEMERGENCE, Rate 50 g/ha", "value": 3}, {"measurement": "Plant response rating, Sorghum", "setting": "sorghum; PREEMERGENCE, Rate 50 g/ha", "value": 6}, {"measurement": "Plant response rating, Crabgrass", "setting": "crabgrass; POSTEMERGENCE, Rate 10 g/ha", "value": 3}, {"measurement": "Plant response rating, Crabgrass", "setting": "crabgrass; POSTEMERGENCE, Rate 50 g/ha", "value": 4}, {"measurement": "Plant response rating, Crabgrass", "setting": "crabgrass; PREEMERGENCE, Rate 10 g/ha", "value": 2}, {"measurement": "Plant response rating, Crabgrass", "setting": "crabgrass; PREEMERGENCE, Rate 50 g/ha", "value": 6}, {"measurement": "Plant response rating, Barnyardgrass", "setting": "barnyardgrass; POSTEMERGENCE, Rate 10 g/ha", "value": 3}, {"measurement": "Plant response rating, Barnyardgrass", "setting": "barnyardgrass; POSTEMERGENCE, Rate 50 g/ha", "value": 6}, {"measurement": "Plant response rating, Barnyardgrass", "setting": "barnyardgrass; PREEMERGENCE, Rate 10 g/ha", "value": 2}, {"measurement": "Plant response rating, Barnyardgrass", "setting": "barnyardgrass; PREEMERGENCE, Rate 50 g/ha", "value": 2}, {"measurement": "Plant response rating, Rape", "setting": "rape; POSTEMERGENCE, Rate 10 g/ha", "value": 10}, {"measurement": "Plant response rating, Rape", "setting": "rape; POSTEMERGENCE, Rate 50 g/ha", "value": 10}, {"measurement": "Plant response rating, Rape", "setting": "rape; PREEMERGENCE, Rate 50 g/ha", "value": 2}, {"measurement": "Plant response rating, Corn", "setting": "corn; POSTEMERGENCE, Rate 10 g/ha", "value": 4}, {"measurement": "Plant response rating, Corn", "setting": "corn; POSTEMERGENCE, Rate 50 g/ha", "value": 4}, {"measurement": "Plant response rating, Corn", "setting": "corn; PREEMERGENCE, Rate 50 g/ha", "value": 0}, {"measurement": "Plant response rating, Morningglory", "setting": "morningglory; POSTEMERGENCE, Rate 10 g/ha", "value": 9}, {"measurement": "Plant response rating, Morningglory", "setting": "morningglory; POSTEMERGENCE, Rate 50 g/ha", "value": 10}, {"measurement": "Plant response rating, Morningglory", "setting": "morningglory; PREEMERGENCE, Rate 50 g/ha", "value": 10}, {"measurement": "Plant response rating, Blackgrass", "setting": "blackgrass; POSTEMERGENCE, Rate 10 g/ha", "value": 5}, {"measurement": "Plant response rating, Blackgrass", "setting": "blackgrass; POSTEMERGENCE, Rate 50 g/ha", "value": 5}, {"measurement": "Plant response rating, Blackgrass", "setting": "blackgrass; PREEMERGENCE, Rate 10 g/ha", "value": 4}, {"measurement": "Plant response rating, Blackgrass", "setting": "blackgrass; PREEMERGENCE, Rate 50 g/ha", "value": 6}, {"measurement": "Plant response rating, Cocklebur", "setting": "cocklebur; POSTEMERGENCE, Rate 10 g/ha", "value": 9}, {"measurement": "Plant response rating, Cocklebur", "setting": "cocklebur; POSTEMERGENCE, Rate 50 g/ha", "value": 10}, {"measurement": "Plant response rating, Cocklebur", "setting": "cocklebur; PREEMERGENCE, Rate 10 g/ha", "value": 0}, {"measurement": "Plant response rating, Cocklebur", "setting": "cocklebur; PREEMERGENCE, Rate 50 g/ha", "value": 1}, {"measurement": "Plant response rating, Cheatgrass", "setting": "cheatgrass; POSTEMERGENCE, Rate 10 g/ha", "value": 5}, {"measurement": "Plant response rating, Cheatgrass", "setting": "cheatgrass; POSTEMERGENCE, Rate 50 g/ha", "value": 4}, {"measurement": "Plant response rating, Cheatgrass", "setting": "cheatgrass; PREEMERGENCE, Rate 10 g/ha", "value": 3}, {"measurement": "Plant response rating, Cheatgrass", "setting": "cheatgrass; PREEMERGENCE, Rate 50 g/ha", "value": 4}, {"measurement": "Plant response rating, Sugar beet", "setting": "sugar beet; POSTEMERGENCE, Rate 10 g/ha", "value": 10}, {"measurement": "Plant response rating, Sugar beet", "setting": "sugar beet; POSTEMERGENCE, Rate 50 g/ha", "value": 10}, {"measurement": "Plant response rating, Sugar beet", "setting": "sugar beet; PREEMERGENCE, Rate 50 g/ha", "value": 9}, {"measurement": "Plant response rating, Soybean", "setting": "soybean; POSTEMERGENCE, Rate 10 g/ha", "value": 9}, {"measurement": "Plant response rating, Soybean", "setting": "soybean; POSTEMERGENCE, Rate 50 g/ha", "value": 9}, {"measurement": "Plant response rating, Soybean", "setting": "soybean; PREEMERGENCE, Rate 50 g/ha", "value": 0}, {"measurement": "Plant response rating, Cotton", "setting": "cotton; POSTEMERGENCE, Rate 10 g/ha", "value": 10}, {"measurement": "Plant response rating, Cotton", "setting": "cotton; POSTEMERGENCE, Rate 50 g/ha", "value": 10}, {"measurement": "Plant response rating, Cotton", "setting": "cotton; PREEMERGENCE, Rate 10 g/ha", "value": 0}, {"measurement": "Plant response rating, Cotton", "setting": "cotton; PREEMERGENCE, Rate 50 g/ha", "value": 2}, {"measurement": "Plant response rating, Wild buckwheat", "setting": "wild buckwheat; POSTEMERGENCE, Rate 10 g/ha", "value": 10}, {"measurement": "Plant response rating, Wild buckwheat", "setting": "wild buckwheat; POSTEMERGENCE, Rate 50 g/ha", "value": 10}, {"measurement": "Plant response rating, Wild buckwheat", "setting": "wild buckwheat; PREEMERGENCE, Rate 50 g/ha", "value": 9}, {"measurement": "Plant response rating, Barley", "setting": "barley; POSTEMERGENCE, Rate 10 g/ha", "value": 4}, {"measurement": "Plant response rating, Barley", "setting": "barley; POSTEMERGENCE, Rate 50 g/ha", "value": 6}, {"measurement": "Plant response rating, Barley", "setting": "barley; PREEMERGENCE, Rate 10 g/ha", "value": 1}, {"measurement": "Plant response rating, Barley", "setting": "barley; PREEMERGENCE, Rate 50 g/ha", "value": 1}]}
